In ChEMBL document CHEMBL4622974, “Leveraging an Open Science Drug Discovery Model to Develop CNS-Penetrant ALK2 Inhibitors for the Treatment of Diffuse Intrinsic Pontine Glioma” (J Med Chem, 2020):
Blank lines part the entries; values can stand above or below the compound they belong to.

Assays:
[1] = target: Serine/threonine-protein kinase NLK (Homo sapiens, UniProt Q9UBE8); assay: Inhibition of NLK (unknown origin)
[2] = target: Serine/threonine-protein kinase SIK2 (Homo sapiens, UniProt Q9H0K1); assay: Inhibition of SIK2 (unknown origin)
Chain of Serine/threonine-protein kinase SIK2 (Q9H0K1 whole entry): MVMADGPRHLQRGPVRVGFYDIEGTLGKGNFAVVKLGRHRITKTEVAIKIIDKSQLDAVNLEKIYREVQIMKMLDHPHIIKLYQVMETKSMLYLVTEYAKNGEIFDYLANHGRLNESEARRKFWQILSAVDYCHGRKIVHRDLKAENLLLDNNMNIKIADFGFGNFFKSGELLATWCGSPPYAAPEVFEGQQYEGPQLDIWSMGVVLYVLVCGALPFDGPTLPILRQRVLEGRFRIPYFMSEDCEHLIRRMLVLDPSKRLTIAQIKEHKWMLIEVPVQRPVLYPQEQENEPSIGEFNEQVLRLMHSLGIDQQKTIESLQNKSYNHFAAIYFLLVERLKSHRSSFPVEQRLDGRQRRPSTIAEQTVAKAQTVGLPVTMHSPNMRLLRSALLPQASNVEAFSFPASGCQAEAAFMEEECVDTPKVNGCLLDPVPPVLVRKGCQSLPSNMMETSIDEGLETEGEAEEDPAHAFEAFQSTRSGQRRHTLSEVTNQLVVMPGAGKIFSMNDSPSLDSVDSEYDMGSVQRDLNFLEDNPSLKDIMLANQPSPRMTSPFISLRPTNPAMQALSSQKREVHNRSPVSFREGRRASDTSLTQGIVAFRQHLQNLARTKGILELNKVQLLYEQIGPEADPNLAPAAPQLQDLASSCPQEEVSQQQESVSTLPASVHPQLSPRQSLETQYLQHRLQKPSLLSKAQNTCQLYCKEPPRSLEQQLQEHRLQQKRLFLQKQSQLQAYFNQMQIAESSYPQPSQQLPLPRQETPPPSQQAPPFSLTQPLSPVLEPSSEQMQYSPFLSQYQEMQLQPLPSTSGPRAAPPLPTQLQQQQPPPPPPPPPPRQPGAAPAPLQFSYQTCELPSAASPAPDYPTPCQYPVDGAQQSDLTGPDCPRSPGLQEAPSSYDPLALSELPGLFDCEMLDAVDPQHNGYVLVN

[3] = target: Cannabinoid receptor 1 (CB1) (Homo sapiens, UniProt P21554); assay: Inhibition of recombinant human CB1 at 10 uM incubated for 60 mins by scintillation counting method
Chain of Cannabinoid receptor 1 (CB1) (P21554 whole entry): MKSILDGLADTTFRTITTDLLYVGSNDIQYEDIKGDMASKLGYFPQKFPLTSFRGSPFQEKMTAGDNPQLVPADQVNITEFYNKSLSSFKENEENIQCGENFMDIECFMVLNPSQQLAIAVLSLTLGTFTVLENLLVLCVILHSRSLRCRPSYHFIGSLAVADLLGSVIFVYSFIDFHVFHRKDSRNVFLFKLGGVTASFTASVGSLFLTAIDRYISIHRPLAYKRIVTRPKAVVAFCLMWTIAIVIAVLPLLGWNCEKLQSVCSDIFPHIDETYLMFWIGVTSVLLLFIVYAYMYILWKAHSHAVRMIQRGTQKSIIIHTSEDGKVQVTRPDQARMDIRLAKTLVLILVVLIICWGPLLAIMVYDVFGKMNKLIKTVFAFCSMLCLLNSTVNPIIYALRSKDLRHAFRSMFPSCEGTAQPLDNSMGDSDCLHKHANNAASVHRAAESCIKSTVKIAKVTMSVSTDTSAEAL

sodium channel site 2 = assay: Inhibition of rat sodium channel site2 at 10 uM incubated for 60 mins by scintillation counting method
hERG (KCNH2) = hERG (KCNH2) (Homo sapiens, UniProt Q12809); assay: Displacement of [3H]dofetilide from recombinant human ERG at 10 uM after 60 mins by scintillation counting analysis; settings: probe [3H]dofetilide
Chain of hERG (KCNH2) (Q12809 whole entry): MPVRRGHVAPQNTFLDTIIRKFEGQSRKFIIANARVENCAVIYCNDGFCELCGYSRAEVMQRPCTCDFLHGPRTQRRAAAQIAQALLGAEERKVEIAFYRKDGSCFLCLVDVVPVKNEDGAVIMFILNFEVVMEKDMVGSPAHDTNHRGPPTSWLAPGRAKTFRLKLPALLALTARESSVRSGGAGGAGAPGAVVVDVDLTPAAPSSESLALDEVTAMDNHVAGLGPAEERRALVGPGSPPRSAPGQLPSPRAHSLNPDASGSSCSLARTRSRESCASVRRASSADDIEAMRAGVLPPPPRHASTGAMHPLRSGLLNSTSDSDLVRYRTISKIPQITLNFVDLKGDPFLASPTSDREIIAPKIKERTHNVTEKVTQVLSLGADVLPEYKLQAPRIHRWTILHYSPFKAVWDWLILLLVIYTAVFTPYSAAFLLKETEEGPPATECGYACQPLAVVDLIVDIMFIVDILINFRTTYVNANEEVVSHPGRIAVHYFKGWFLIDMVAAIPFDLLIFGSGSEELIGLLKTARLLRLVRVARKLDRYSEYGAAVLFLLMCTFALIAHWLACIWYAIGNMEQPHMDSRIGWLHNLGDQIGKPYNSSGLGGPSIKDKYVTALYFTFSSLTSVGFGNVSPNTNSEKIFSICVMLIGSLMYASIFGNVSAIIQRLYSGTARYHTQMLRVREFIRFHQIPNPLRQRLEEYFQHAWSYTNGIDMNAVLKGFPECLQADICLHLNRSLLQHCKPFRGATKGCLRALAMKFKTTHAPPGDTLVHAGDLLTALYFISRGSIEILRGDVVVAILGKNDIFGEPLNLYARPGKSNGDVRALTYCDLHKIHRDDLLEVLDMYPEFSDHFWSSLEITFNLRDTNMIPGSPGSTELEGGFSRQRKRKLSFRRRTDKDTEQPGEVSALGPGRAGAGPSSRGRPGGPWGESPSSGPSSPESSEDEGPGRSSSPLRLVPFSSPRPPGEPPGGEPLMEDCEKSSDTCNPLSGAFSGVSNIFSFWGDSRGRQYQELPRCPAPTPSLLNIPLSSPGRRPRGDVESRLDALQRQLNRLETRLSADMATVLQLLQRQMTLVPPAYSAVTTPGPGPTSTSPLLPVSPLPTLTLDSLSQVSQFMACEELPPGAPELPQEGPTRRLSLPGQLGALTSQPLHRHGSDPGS

Cytochrome P450 1A2 = Cytochrome P450 1A2 (Homo sapiens, UniProt P05177); assay: Inhibition of CYP1A2 in human liver microsomes using phenacetin as substrate incubated for 20 mins in presence of NADPH by LC/MS/MS analysis; assay type: ADME
Chain of Cytochrome P450 1A2 (P05177 whole entry): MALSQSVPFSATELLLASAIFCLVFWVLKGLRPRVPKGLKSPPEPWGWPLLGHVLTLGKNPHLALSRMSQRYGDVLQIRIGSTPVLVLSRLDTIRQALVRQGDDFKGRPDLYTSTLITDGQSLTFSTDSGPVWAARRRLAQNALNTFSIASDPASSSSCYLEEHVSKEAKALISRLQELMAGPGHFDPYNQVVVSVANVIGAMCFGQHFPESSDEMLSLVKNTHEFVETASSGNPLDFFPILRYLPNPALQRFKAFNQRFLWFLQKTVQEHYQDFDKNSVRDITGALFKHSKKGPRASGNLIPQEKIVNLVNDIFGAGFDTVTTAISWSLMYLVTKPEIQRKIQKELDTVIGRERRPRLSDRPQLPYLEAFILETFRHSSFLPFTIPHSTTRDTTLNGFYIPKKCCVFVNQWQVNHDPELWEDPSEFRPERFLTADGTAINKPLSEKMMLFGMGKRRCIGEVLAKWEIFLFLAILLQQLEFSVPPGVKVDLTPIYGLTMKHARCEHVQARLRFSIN

Cytochrome P450 2C9 = Cytochrome P450 2C9 (Homo sapiens, UniProt P11712); assay: Inhibition of CYP2C9 in human liver microsomes using tolbutamide as substrate incubated for 20 mins in presence of NADPH by LC/MS/MS analysis; assay type: ADME
Chain of Cytochrome P450 2C9 (P11712 whole entry): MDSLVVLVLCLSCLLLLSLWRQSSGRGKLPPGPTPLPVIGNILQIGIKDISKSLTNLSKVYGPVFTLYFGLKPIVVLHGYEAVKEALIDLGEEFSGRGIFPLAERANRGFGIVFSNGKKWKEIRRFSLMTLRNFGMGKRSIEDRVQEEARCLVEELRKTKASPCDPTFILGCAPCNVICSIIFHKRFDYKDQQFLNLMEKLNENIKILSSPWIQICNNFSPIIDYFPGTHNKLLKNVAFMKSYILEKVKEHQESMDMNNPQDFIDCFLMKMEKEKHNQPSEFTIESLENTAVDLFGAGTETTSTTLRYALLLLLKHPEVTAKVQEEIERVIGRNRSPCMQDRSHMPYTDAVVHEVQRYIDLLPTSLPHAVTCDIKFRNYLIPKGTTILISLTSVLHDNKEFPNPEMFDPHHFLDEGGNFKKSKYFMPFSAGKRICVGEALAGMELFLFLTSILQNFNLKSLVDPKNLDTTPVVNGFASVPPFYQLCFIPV

Cytochrome P450 3A4 = Cytochrome P450 3A4 (Homo sapiens, UniProt P08684); assay: Inhibition of CYP3A4 in human liver microsomes using midazolam as substrate incubated for 5 mins in presence of NADPH by LC/MS/MS analysis; assay type: ADME
Chain of Cytochrome P450 3A4 (P08684 whole entry): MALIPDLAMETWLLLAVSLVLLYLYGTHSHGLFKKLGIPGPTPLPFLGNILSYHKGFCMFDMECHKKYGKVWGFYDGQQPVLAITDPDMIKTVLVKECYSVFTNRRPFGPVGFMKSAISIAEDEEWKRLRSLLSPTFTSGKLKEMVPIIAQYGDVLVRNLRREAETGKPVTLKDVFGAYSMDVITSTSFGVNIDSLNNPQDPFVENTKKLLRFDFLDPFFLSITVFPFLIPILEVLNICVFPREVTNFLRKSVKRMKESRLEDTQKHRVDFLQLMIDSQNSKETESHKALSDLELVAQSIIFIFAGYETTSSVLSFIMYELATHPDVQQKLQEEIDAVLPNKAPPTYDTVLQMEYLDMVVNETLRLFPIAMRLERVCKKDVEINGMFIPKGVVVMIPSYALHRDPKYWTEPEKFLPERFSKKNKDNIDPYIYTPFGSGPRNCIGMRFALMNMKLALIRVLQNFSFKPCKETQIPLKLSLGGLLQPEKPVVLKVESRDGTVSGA

[4] = Ratio of drug level in brain to plasma in CD-1 mouse at 10 mg/kg, po measured at 2 hrs; assay type: ADME, organism-based; settings: brain and plasma, read-out: BPR
[5] = Plasma concentration in NOD/SCID mouse at 25 mg/kg, po measured after 0.5 to 6 hrs; assay type: ADME, organism-based; settings: in vivo
[6] = Unbound drug level in CD-1 mouse brain at 1 mg/kg, iv measured at 2 hrs; assay type: ADME, organism-based; settings: in vivo
[7] = Drug level in CD-1 mouse brain at 1 mg/kg, iv measured at 2 hrs; assay type: ADME, organism-based; settings: read-out: Drug uptake
[8] = Protein binding in CD-1 mouse brain at 1 mg/kg, iv measured at 2 hrs; assay type: ADME, organism-based; settings: read-out: PB (converted)
[9] = Plasma concentration in CD-1 mouse at 1 mg/kg, iv measured at 2 hrs by LC/MS/MS method; assay type: ADME, organism-based
[10] = Protein binding in CD-1 mouse plasma at 1 mg/kg, iv measured at 2 hrs by LC/MS/MS method; assay type: ADME, organism-based; settings: read-out: PPB
[11] = Unbound brain-to-plasma concentration ratio in CD-1 mouse plasma at 1 mg/kg, iv measured at 2 hrs; assay type: ADME, organism-based; settings: read-out: K(p,uu,brain)
[12] = Toxicity in C57BL/6 mouse assessed as mouse death at 50 mg/kg, po QD administered for 5 days measured after 24 hrs; assay type: organism-based; settings: in vivo
[13] = Toxicity in C57BL/6 mouse assessed as body weight loss at 25 mg/kg, po QD administered for 5 days measured after 24 hrs relative to control; assay type: organism-based; settings: in vivo
[14] = Toxicity in C57BL/6 mouse assessed as body weight loss at 25 mg/kg, po BID administered for 5 days measured after 24 hrs relative to control; assay type: organism-based; settings: in vivo
[15] = Toxicity in C57BL/6 mouse assessed as body weight loss at 50 mg/kg, po QD administered for 5 days measured after 24 hrs relative to control; assay type: organism-based; settings: in vivo
[16] = Toxicity in C57BL/6 mouse assessed as body weight loss at 100 mg/kg, po QD administered for 5 days measured after 24 hrs relative to control; assay type: organism-based; settings: in vivo
[17] = Toxicity in C57BL/6 mouse assessed as gross pathology at 25 mg/kg, po BID administered for 5 days measured after 24 hrs relative to control; assay type: organism-based; settings: in vivo
[18] = Toxicity in C57BL/6 mouse assessed as gross pathology at 100 mg/kg, po QD administered for 5 days measured after 24 hrs relative to control; assay type: organism-based; settings: in vivo
[19] = Ratio of drug level in brain to plasma in CB17 SCID mouse at 25 mg/kg, po measured at 4 h; assay type: ADME, organism-based; settings: read-out: BPR
Activin receptor type-1 [20] = target: T1, Activin receptor type-1 (Homo sapiens, UniProt Q04771); assay: Inhibition of human ALK2 using casein as substrate in presence of [gamma-33P]-ATP by radiometric hotspot assay
T1 sequence (Q04771 whole entry): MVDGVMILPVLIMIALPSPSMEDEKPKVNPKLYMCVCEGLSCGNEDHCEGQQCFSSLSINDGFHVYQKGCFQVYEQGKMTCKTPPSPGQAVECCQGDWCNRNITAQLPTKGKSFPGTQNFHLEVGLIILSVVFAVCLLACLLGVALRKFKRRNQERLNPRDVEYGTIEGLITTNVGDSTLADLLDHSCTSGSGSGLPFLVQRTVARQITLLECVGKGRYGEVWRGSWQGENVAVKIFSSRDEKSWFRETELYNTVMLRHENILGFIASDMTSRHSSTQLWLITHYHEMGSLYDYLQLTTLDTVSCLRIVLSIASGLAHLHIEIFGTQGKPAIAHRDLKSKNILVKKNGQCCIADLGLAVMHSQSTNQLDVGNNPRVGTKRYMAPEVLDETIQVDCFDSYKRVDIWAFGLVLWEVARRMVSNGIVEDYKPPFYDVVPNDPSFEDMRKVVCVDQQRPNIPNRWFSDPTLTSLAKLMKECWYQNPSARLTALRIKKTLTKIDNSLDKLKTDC

Activin receptor type-1 [21] = target: T1, Activin receptor type-1; assay: Competitive displacement of PBI-6908 from nanoluciferase-fused ALK2 (unknown origin) expressed in HEK293 cells incubated for 2 hrs by NanoBRET NanoGlo substrate based NanoBRET assay; assay type: cell-based
TGF-beta receptor type-1 = target: T2, TGF-beta receptor type-1 (Homo sapiens, UniProt P36897); assay: Inhibition of recombinant human ALK5 expressed in HEK293 cells transfected with CAGA-luciferase and Renilla luciferase reporter after 24 hrs by dual luciferase reporter assay; assay type: cell-based
T2 sequence (P36897 whole entry): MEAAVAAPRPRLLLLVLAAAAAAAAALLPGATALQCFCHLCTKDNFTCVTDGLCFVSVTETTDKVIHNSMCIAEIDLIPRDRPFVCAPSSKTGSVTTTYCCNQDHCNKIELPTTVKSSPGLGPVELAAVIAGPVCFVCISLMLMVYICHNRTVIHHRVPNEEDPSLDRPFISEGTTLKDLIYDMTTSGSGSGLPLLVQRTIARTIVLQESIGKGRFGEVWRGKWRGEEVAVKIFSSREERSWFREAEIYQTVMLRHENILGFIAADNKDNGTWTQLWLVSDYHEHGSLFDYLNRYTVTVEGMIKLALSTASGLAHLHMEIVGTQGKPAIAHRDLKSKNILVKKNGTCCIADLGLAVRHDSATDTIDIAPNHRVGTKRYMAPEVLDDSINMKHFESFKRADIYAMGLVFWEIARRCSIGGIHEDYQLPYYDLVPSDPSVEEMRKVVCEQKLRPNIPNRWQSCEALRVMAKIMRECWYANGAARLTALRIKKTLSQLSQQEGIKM

[22] = Drug concentration in CB17 SCID mouse brain at 100 mg/kg after 0.25 to 24 hrs; assay type: ADME, organism-based; settings: in vivo, read-out: Drug uptake

Chain of Serine/threonine-protein kinase NLK (Q9UBE8 whole entry): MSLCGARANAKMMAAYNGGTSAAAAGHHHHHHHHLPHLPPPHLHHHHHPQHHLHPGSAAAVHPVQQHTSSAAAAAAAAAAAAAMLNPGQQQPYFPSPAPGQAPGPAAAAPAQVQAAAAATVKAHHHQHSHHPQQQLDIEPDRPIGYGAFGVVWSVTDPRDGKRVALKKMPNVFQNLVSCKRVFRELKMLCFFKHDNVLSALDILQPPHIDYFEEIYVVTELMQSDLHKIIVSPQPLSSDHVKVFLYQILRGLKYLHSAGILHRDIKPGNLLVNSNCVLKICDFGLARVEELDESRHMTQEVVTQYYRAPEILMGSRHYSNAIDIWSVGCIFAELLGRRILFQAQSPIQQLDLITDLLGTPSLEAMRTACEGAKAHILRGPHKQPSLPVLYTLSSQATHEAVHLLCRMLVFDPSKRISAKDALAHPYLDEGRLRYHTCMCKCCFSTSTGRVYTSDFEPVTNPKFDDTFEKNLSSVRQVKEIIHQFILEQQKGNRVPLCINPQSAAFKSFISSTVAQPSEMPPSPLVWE

Compound: COc1cc(-c2cncc(-c3ccc(N4CCNCC4)cc3)c2C)cc(OC)c1OC
IC50 [1]: 336 to 924 nM
IC50 [2]: 336 to 924 nM
inhibition at 1 h, 10 µM [3]: 97%
inhibition at 1 h, 10 µM (sodium channel site 2): 72%
inhibition at 1 h, 10 µM (hERG (KCNH2)): 69%
IC50 (Cytochrome P450 1A2): > 30000 nM
IC50 (Cytochrome P450 2C9): > 30000 nM
IC50 (Cytochrome P450 3A4): > 30000 nM
Kp at 2 h [4]: 0.9
concentration [5]: 7.46 µM
Drug uptake(free) [6]: 3.7 nM
concentration at 2 h [7]: 0.123 µM
fraction unbound at 2 h [8]: 0.03
concentration at 2 h [9]: 0.156 µM
fraction unbound at 2 h [10]: 0.09
Kp uu at 2 h [11]: 0.3
Activity [12]: Non-Toxic
Activity [13]: Non-Toxic
Activity [14]: Non-Toxic
Activity [15]: Non-Toxic
Activity [16]: Non-Toxic
Activity [17]: Non-Toxic
Activity [18]: Non-Toxic
Kp at 4 h [19]: 1.5

IC50 (Activin receptor type-1 [20]): 7 nM
IC50 (Activin receptor type-1 [21]): 29 nM
IC50 (TGF-beta receptor type-1): 3330 nM
concentration [22]: 39 µM
Compound: COc1cc(-c2cncc(-c3ccc(C4CCN(C)CC4)cc3)c2C)cc(OC)c1OC
